Key:
C1498 AML cells = test: C1498 AML model in C57BL/6J mice, histopathology of liver and ovary; format: in vivo; conditions: 5 mg/kg i.p. for 7 days
Experimental: Animal experiments were conducted in full accordance with Swedish governmental statutory regulations on animal welfare under permission from local ethical committees. Animals were housed at a max of five per cage and provided with sterile water and food ad libitum. All mice were monitored and weighed daily. For the head and neck carcinoma model a 100-μl cell suspension containing 1×10^6 FaDu cells was injected subcutaneously into the right rear flank of the animals. After injection, tumor growth was measured daily with calipers and the tumor volume calculated by the formula […]. When tumors had grown to a size of approximately 200 mm^3 (Day 0) mice were randomized to receive either vehicle (n=10) or b-AP15 5 mg/kg^−1 by subcutaneous injection s.c. (n=15) daily. […] Nineteen days after malignant cell injection all of the mice were killed and histopathological manifestations of liver, ovary (target organs for this model of tumor) were evaluated and compared between groups. […]
SCID mice bearing FaDu human tumor xenografts were randomized at tumor take (200 mm^3) and treated by daily subcutaneous injection with either vehicle (n=10) or 5 mg kg^−1 b-AP15 (n=15) for 10 days. […] Mice were treated with vehicle (n=6) or 5 mg kg^−1 b-AP15 (n=6) 4-5 times weekly for 3 weeks and monitored for tumor onset (log-rank, P=0.0136, hazard ratio=7.9). […]

[1] = test system: cellular DUB activity (HCT-116 cells); test: Cellular DUB activity, Ub-AMC cleavage in lysates of treated cells; format: cell-based; conditions: b-AP15 treated cells
From the text: b-AP15 comprises an α-β dienone entity with two sterically accessible β carbons. A structurally similar pharmacophore has been earlier described to be comprised by a class of ubiquitin isopeptidase inhibitors (21). […] In the opinion of the present inventors the similarities in pharmacophore structure and the data showing that b-AP15 inhibits proteasome activity independent of the 20S CP indicate that b-AP15 represents a novel class of proteasome inhibitors that block the deubiquitinating activity of the 19S RP.
HTC-116 cells were treated for 3 h with b-AP15 (1 μM) (FIG. 10). Lysates treated with 10 mM N-ethylmaleimide (NEM) were included as a control for total DUB inhibition. DUB activity was determined from cell lysates by measuring cleavage of the fluorogenic substrate ubiquitin-7-amido-4-methylcoumarin (Ub-AMC).

[2] = Animal weight and side effects in treated tumor-bearing mice; format: in vivo
Experimental: In order to investigate the effect of b-AP15 on tumor growth in vivo, the compound was administered to mice bearing either a human tumor or mouse xenografts. FaDu head and neck carcinoma were chosen as a SCID mouse xenograft both as a model for a p53mut tumor and since this model is suitable for studies using circulating cell death biomarkers (30). Significant inhibition of FaDu tumor growth was observed following daily treatment with b-AP15 (treated/control tumor volume, T/C=0.4, p=<0.001). Similarly b-AP15 (day on/2 day off schedule) inhibited tumor growth in C57BL/6J mice bearing lung carcinomas (T/C=0.16, p=<0.01). […] To examine whether b-AP15 promotes tumor cell death in vivo, plasma levels of cytokeratin-18 (CK18) were analyzed. […] To investigate the ability of b-AP15 to inhibit proteasome deubiquitination in vivo, accumulation of poly-ubiquitin conjugates was analyzed by means of antibodies specific for K48 linked polyubiquitin chains. Histological analysis of treated tumors confirmed the accumulation of poly-ubiquitin conjugates.
Animal experiments were conducted in full accordance with Swedish governmental statutory regulations on animal welfare under permission from local ethical committees. Animals were housed at a max of five per cage and provided with sterile water and food ad libitum. All mice were monitored and weighed daily. For the head and neck carcinoma model a 100-μl cell suspension containing 1×10^6 FaDu cells was injected subcutaneously into the right rear flank of the animals. After injection, tumor growth was measured daily with calipers and the tumor volume calculated by the formula […]. When tumors had grown to a size of approximately 200 mm^3 (Day 0) mice were randomized to receive either vehicle (n=10) or b-AP15 5 mg/kg^−1 by subcutaneous injection s.c. (n=15) daily. For the colon carcinoma model, 2.5×10^6 HCT-116 colon carcinoma cells stably transfected with Bcl-2 (HCT-116^Bcl-2+) were inoculated subcutaneously into the right flank of nude mice. One day after inoculation mice were treated with 5 mg/kg^−1 by intra peritoneal injection (i.p.). Animals were inspected daily to establish the tumor onset and growth. For the lung carcinoma model a 100-μl cell suspension containing 2×10^5 Lewis Lung Carcinoma (LLC) cells was injected subcutaneously into the right rear flank of C57/B6 mice. When tumors had grown to a size of approximately 50 mm^3 (Day 0) mice were randomized to receive either vehicle (n=4) or b-AP15 5 mg/kg^−1 i.p. (n=4) with a treatment cycle consisting of two days treatment followed by two days no treatment (2 days on/2 days off) for two weeks. For the breast carcinoma model a 100-μl cell suspension containing 1×10^5 […] was injected subcutaneously into the right mammary fat pad of BALB/c mice. When tumors had grown to a size approximately 25 mm^3 (Day 0), mice were randomized to receive either vehicle (n=5) or b-AP15 2.5 mg/kg^−1 i.p. (n=5) with a treatment cycle consisting of one days treatment followed by three days no treatment (1 day on/3 days off) for 3 weeks. In the AML studies female C57BL/6J mice were injected i.v. in the tail vein with 5×10^5 C1498 AML cells. After eight days mice were randomized to receive either b-AP15 5 mg/kg^−1 (n=10) or vehicle (n=10) i.p. for 7 days (day +8 till +14). Nineteen days after malignant cell injection all of the mice were killed and histopathological manifestations of liver, ovary (target organs for this model of tumor) were evaluated and compared between groups. […]

For `C=CC(=O)N1C/C(=C\c2ccc([N+](=O)[O-])cc2)C(=O)/C(=C/c2ccc([N+](=O)[O-])cc2)C1` [b-AP15], the “AML infiltration in liver and ovary” value (C1498 AML cells) was “few infiltrated blasts and normal morphology”, the “cellular DUB activity (Ub-AMC cleavage)” value [1] was “no reduction in Ub-AMC cleavage” and the “difference in weight at start and endpoint between control and treated animals” value (“difference in weight” for short) ([2]; 4T1) was “+5.8%”. For the same compound, the “difference in weight” value ([2]; FaDu xenograft) was −1.3%, the “difference in weight” value ([2]; LLC) was “+2.1%” and the adverse side effects ([2]; b-AP15 treated group) was “No adverse side effects were observed”. For the same compound, the “average weight loss at the conclusion of the study” value ([2]; b-AP15 treated group) was under 5%.
